Data from patent US20200165574A1, “METHODS OF PREPARING NAÏVE HUMAN PLURIPOTENT STEM CELLS” (REGENTS OF THE UNIVERSITY OF MINNESOTA, priority 2017, published 2020).
Entries after “also recorded” stand apart in the source; their conditions may differ.

How the values were obtained:
Type in all cases: cell-based, human
primed HPSCs [1] = experiment: ERK inhibitor assay, primed PSCs; settings: 10 nM ERK inhibitor in media, imaged each day for 4 days
Protocol: (§1) One day after passaging, 10 nM ERK inhibitor PD0325901 (PZ0162, Sigma-Aldrich, St. Louis, Mo.) was added to naïve or primed PSCs. Cells were imaged each day for 4 days to follow morphology changes.

naïve HPSCs [2] = experiment: ERK inhibitor assay, naïve PSCs; settings: naïve HPSCs in RSet media, additional 10 nM ERK inhibitor, imaged each day for 4 days; listed as PD325901
Protocol: as §1

naïve HPSCs [3] = experiment: Karyotype of transitioned naïve HPSCs (high-resolution G banding); settings: after 10 passages in RSet media
Description: Naïve HPSCs were examined by high-resolution G banding after 10 passages in RSet medium.

primed HPSCs [4] = experiment: Feeder-free transition of primed HPSCs to the naïve state on a culture substrate; settings: RSet media, substrate-coated plate
Protocol: Primed induced pluripotent stem cell (PCBC16iPS) (Ye et al. (2013) PLoS ONE 8 (1):e53764) to be used for naïve cell derivation were cultured for at least two passages in mTeSR1 medium (STEMCELL Technologies, Vancouver, Canada) in either normoxic (20% O2, 5% CO2) or hypoxic conditions (5% O2, 5% CO2). Primed iPSCs were treated with Gentle Cell Dissociation Reagent (STEMCELL Technologies, Vancouver, Canada) for 5 minutes at room temperature and removed from the plate with a 5 milliliter (mL) pipette in 1 mL TeSR1 medium. Aggregates of 250 primed iPSCs were plated in 1 mL mTeSR1 (STEMCELL Technologies, Vancouver, Canada) per well of a 12-well tissue culture treated plate (Corning, Inc., Corning, N.Y.) coated with 5 micrograms per milliliter (μg/mL) full-length vitronectin (PeproTech, Rocky Hill, N.J.) (Parr et al. (2016) Methods in Molecular Biology 1357:221-9). The plate had been previously coated with vitronectin at 37° C. for 2 hours per manufacturer's protocol. The plated cells were incubated overnight at 37° C., to allow adherence to the vitronectin coated plate. The cells may be incubated in either normoxic or hypoxic conditions, and typically were incubated under the same conditions used to maintain the primed HPSC culture. […] Cells were monitored for compaction and defined colony edges. […]

Molecule | differentiation / maintenance of pluripotency (morphology changes) (primed HPSCs [1]) | differentiation / maintenance of undifferentiated state (morphology changes) (naïve HPSCs [2]) | karyotype of naïve HPSCs derived on the substrate (naïve HPSCs [3]) | support of transition from primed to naïve pluripotent state (primed HPSCs [4])
O=C(NOC[C@H](O)CO)c1ccc(F)c(F)c1Nc1ccc(I)cc1F [PD0325901] | induces differentiation; also recorded: displayed immediate differentiation | maintain their undifferentiated state |  | 
full-length recombinant vitronectin: xeno-free recombinant full-length vitronectin (PeproTech), coated on plate at 5 μg/mL as culture substrate (protein, UniProt P04004 1-478, looked up, full-length, xeno-free recombinant full-length vitronectin (PeproTech), coated on plate at 5 μg/mL as culture substrate) MAPLRPLLILALLAWVALADQESCKGRCTEGFNVDKKCQCDELCSYYQSCCTDYTAECKPQVTRGDVFTMPEDEYTVYDDGEEKNNATVHEQVGGPSLTSDLQAQSKGNPEQTPVLKPEEEAPAPEVGASKPEGIDSRPETLHPGRPQPPAEEELCSGKPFDAFTDLKNGSLFAFRGQYCYELDEKAVRPGYPKLIRDVWGIEGPIDAAFTRINCQGKTYLFKGSQYWRFEDGVLDPDYPRNISDGFDGIPDNVDAALALPAHSYSGRERVYFFKGKQYWEYQFQHQPSQEECEGSSLSAVFEHFAMMQRDSWEDIFELLFWGRTSAGTRQPQFISRDWHGVPGQVDAAMAGRIYISGMAPRPSLAKKQRFRHRNRKGYRSQRGHSRGRNQNSRRPSRATWLSLFSSEESNLGANNYDDYRMDWLVPATCEPIQSVFFFSGDKYYRVNLRTRRVDTVDPPYPRSIAQYWLGCPAPGHL |  |  | normal karyotype | supports the successful transition
